What all share (assay type): cell-based, ovine
For test [1], the system named is eNOS phosphorylation at T495. Description: Western blot of pT495-eNOS in PAEC. As for the experimental part:
(§1) Primary cultures of ovine pulmonary arterial endothelial cells (PAEC) were isolated as described previously (L. K. Kelly, Am J Physiol Lung Cell Mol Physiol, 286(5), L984-91 (2004)). Briefly, cells were maintained in Dulbecco's modified Eagle medium (DMEM) supplemented with 10% fetal calf serum (Hyclone, Logan, UT), antibiotics/antimycotic (500 IU Penicillin, 500 μg/ml Streptomycin, 1.25 μg/ml Amphotericin B; MediaTech, Herndon, VA) at 37° C. in a humidified atmosphere with 5% CO2 and 95% air. Cells were used for experiments between passages 9-14, seeded at ˜50% confluence, and utilized when fully confluent.
Protein extracts were prepared using lysis buffer (50 mM Tris-HCl, pH 7.6, 0.5% Triton X-100, 20% glycerol) containing HALT™ protease inhibitor cocktail (Pierce Laboratories, Rockford, IL). The extracts were then subjected to centrifugation (15,000 g for 15 min at 4° C.). Supernatant fractions were assayed for protein concentration using the Bradford reagent (Bio-Rad, Richmond, CA) then used for Western blot analyses. Protein extracts (25-50 μg) were separated on Long-Life 4-20% Tris-SDS-Hepes gels and electrophoretically transferred to IMMUNO-BLOT™ PVDF membrane (Bio-Rad Laboratories, Hercules, CA) Immunoblotting was then carried out using the appropriate antibodies in Tris-base buffered saline with 0.1% Tween 20 and 5% nonfat milk. After washing, the membranes were probed with horseradish peroxidase-conjugated goat antiserum to rabbit or mouse. Reactive bands were visualized using chemiluminescence (Super Signal West Femto; Pierce, Rockford, IL) on a LI-COR Odyssey image station (Lincoln, NE). Bands were quantified using LI-COR Image Station software. Loading was normalized by reprobing the membranes with an antibody specific to β-actin.
A general note: Immunoblotting shows a protein as a band on a membrane.

Test [2] concerns PAEC monolayers. Description: Trans endothelial resistance (TER) of PAEC monolayers. How it is done: as §1
Transendothelial Electrical Resistance (TER) was determined to characterize the integrity of PAEC monolayers using an electrical cell-substrate impedance sensing (ECIS) instrument ECIS Z-Theta (Applied BioPhysics, Troy, NY) as previously described (J. N. Gonzales, Vascul Pharmacol, 62(2), 63-71 (2014); S. Aggarwal, American Journal of Respiratory Cell and Molecular Biology, 50(3), 614-25 (2014)). The cells were plated in 8-well ECIS arrays (Applied BioPhysics) in complete cell culture medium (DMEM supplemented with 10% FBS) and grown to 100% confluency for 2 days. […] After a baseline measurement, the EC were treated with 4αPDD, PMA, the eNOS pT495 decoy peptide, or vehicle at the indicated concentrations, and changes in TER were recorded in real time.

Test [3] has as its system mitochondrial redistribution of eNOS. The test is described as follows: Immunofluorescent microscopy of eNOS mitochondrial redistribution in PAEC. How it is done:
as §1
PAEC were grown on cover glass for three days after reaching 100% confluence, and fixed with 4% paraformaldehyde (Thermo Fisher Scientific) for 30 min, permeabilized with 100% cold methanol at −20° C. for 5 min Cell then blocked with 1% BSA for 1 hour, and later incubated with first antibody overnight at 4° C. then secondary antibody at room temperature for 1 hour. Finally, cells were mounted on microscope slides using ProLong Glass Antifade Mountant, (Invitrogen, Carlsbad, CA, Cat #P36980). […] The images were analyzed with ImagePro Plus 7.0 (W. Casavan, Microscopy Today, 11(6), 48-50 (2003)) or ImageJ software to evaluate the colocalization of fluorescent.

For test [4], the system named is NOS-derived superoxide. The test is described as follows: NOS-derived superoxide by EPR (eNOS uncoupling) in PAEC. How it is done: as §1
Superoxide levels were estimated by electron paramagnetic resonance (EPR) assay using the spin-trap compound 1-hydroxy-3-methoxycarbonyl-2,2,5,5-tetramethylpyrrolidine HCl (CMH, Axxora) as described previously. Superoxide in PAEC was trapped by incubating PAEC with 20 μl of CMH stock solution (20 mg/ml) for 1 h, followed by trypsinization and centrifugation at 500 g. The cell pellet was suspended in 35 μl DPBS and loaded into a capillary tube which was then analyzed with a MiniScope MS200 EPR machine (Magnettech, Berlin, Germany). Pre-incubating cells or tissue with 100 μM ethylisothiourea (ETU, Sigma-Aldrich) for 30 min followed by incubation with CMH measured NOS-derived superoxide. EPR spectra were analyzed using ANALYSIS v.2.02 software (Magnettech). Differences between levels of samples incubated in the presence and absence of ETU were used to determine NOS-dependent superoxide generation.

In the case of `CCCCCCCCCC(=O)O[C@@H]1[C@@H](C)[C@@]2(O)[C@@H](C=C(CO)C[C@@]3(O)C(=O)C(C)=C[C@@H]23)[C@@H]2C(C)(C)[C@]12OC(=O)CCCCCCCCC` [4αPDD, 4α-Phorbol-12,13 didecanoate], the “eNOS phosphorylation at T495” value in test [1] (4αPDD) is reported as “increase in eNOS phosphorylation at T495”. Also, in test [2] (4αPDD 0-15 μM), the “TER (barrier integrity)” value is given as “dose-dependent decrease in TER”. Besides, the “mitochondrial redistribution of eNOS” value in test [3] (4αPDD) is “induces the mitochondrial redistribution of eNOS”. Moreover, in test [4] (4αPDD), the “NOS derived superoxide generation (eNOS uncoupling)” value was “increases in NOS derived superoxide generation”.

Regarding HRKKRRQRRITRKKTFKEVA [d-peptide], in test [1] (d-peptide 1 μg/ml, PMA 100 nm, 2 h), the “PMA-mediated increase in pT495-eNOS” value is “attenuated the PMA-mediated increase in pT495-eNOS”. In addition, the “barrier disruption induced by 4αPDD (normalized TER)” value in test [2] (d-peptide plus 4αPDD) is on record as “reduced”. For the same compound, the “PMA-induced mitochondrial redistribution of eNOS” value in test [3] (d-peptide and PMA) is “attenuated”. For the same compound, the “eNOS uncoupling (NOS-derived superoxide levels)” value in test [4] (d-peptide and PMA) is listed as “reduced eNOS uncoupling”.

For the origin of these results see patent publication US20240002437A1, “COMPOSITIONS AND METHODS OF TREATING INFLAMMATORY LUNG DISEASES” (priority 2020, published 2024).
